{"source": "patent US8815590B2", "about": "“Composition and method for differentiation of human embryonic stem cells” (Stem Cells for Safer Medicines Limited, priority 2009, dated 2014)", "key": {"Human ESCs [SHEF3]": {"system": "Human ESCs [SHEF3]", "assay": "Flow cytometry of pluripotency surface markers Tra-1-60 and SSEA4 in treated human ESCs", "format": "cell-based", "protocol": "(A) Images show typical colonies formed following the indicated treatments. The scale bars represent 1 mm. (B) Histogram plots of ESCs analysed by flow cytometry following immunostaining with antibodies against the pluripotency markers Tra-1-60 or SSEA4. (C) RNA was extracted from the cells and RT-PCR analyses performed using primers specific to the pluripotency genes OCT4 and NANOG and to the house-keeping gene β-ACTIN. (D) Western blot analysis was performed on protein extracted from the cells and immunoblotted with antibodies specific to Oct4. Blots were stripped and reprobed with anti-Gapdh antibodies to assess equal loading. […] SHEF3 cells were treated with the indicated concentration of 1O for 7 days. Images show typical colony morphology. (F) Histogram plots of ESCs analysed by flow cytometry following staining with Tra-1-60 and SSEA4 antibodies. Analysis of percent positive cells and mean fluorescent intensity are indicated on the plots. (G) RT PCR analysis for the expression of OCT4 and NANOG. Bands for each of the genes were from the same gel with intervening samples removed. (H) Western blot analysis of OCT4 protein expression. Proteins bands were from the same immunoblot with intervening samples removed.\nSHEF1 and SHEF3 human ESCs were obtained from the UKSCB and cultured as outlined in their protocols. Briefly, ESCs were maintained on mitomycin C-inactivated mouse embryonic fibroblast (MEF) feeder layers in KnockOut Dulbecco's modified Eagle's medium (KO DMEM) (Invitrogen) supplemented with 20% (vol/vol) KO serum replacement (KOSR; Invitrogen), 1 mM non-essential amino acids (NEAA; Invitrogen), 1 mM glutamine (Invitrogen), 0.1 mM 2-mercaptoethanol (BioRad), penicillin/streptomycin, and 4 ng/ml recombinant human FGF2 (Peprotech). Cultures were passage using 1 mg/ml collagenase at a ratio of 1:8 to 1:12 every 7 days. Cultures were transferred to a feeder-free, chemically defined culture system on ESC-qualified Matrigel® (BD) coated plates in mTeSR1® (Stem Cell Technologies) media according to Stem Cell Technologies' protocol.\nESCs were trypsinised (0.05% Trypsin-EDTA) for 10 minutes at 37° C. and resuspended in PBS containing 2% (v/v) FBS (FBS/PBS). […] Cells were washed and stained with secondary fluorescein isothiocyanate (FITC)-conjugated antibodies (SIGMA) for a further 30 minutes, if required. Flow cytometry was performed using a FACSCanto cytometer (Becton Dickenson) and the data were analysed with FACSDiva software. Dead cells were excluded for analyses based on forward and side scatter parameters."}, "ESCs [SHEF1]": {"system": "ESCs [SHEF1]", "assay": "Immunofluorescence of endoderm markers FoxA2 and HNF4α, percent positive cells", "format": "cell-based, human", "details": "5 days", "protocol": "(A) RNA was extracted from ESCs [SHEF1] cultured for 7 days in the presence of 2 μM 1M for the days indicated. RT-PCR analyses were performed using primers selective for the genes indicated. (B) ESCs [SHEF1] were treated with 2 μM 1M alone or in combination with 10 μM SB43125 (S) for the days indicated and RT-PCR performed on the extracted RNA. (C) ESCs [SHEF3] were treated with 1M alone or in combination with 100 ng/ml Activin A (A) for the days indicated and RT-PCR performed. (D). ESCs [SHEF1] were treated with 2 μM 1M, or 100 ng/ml ActivinA (A) alone or in combination with 1M for 5 days. Expression of the endoderm markers FoxA2 and HNF4α was analysed by immunofluorescence. The number of percent positive cells averaged from 3 fields of view +/−SD are indicated. Scale bar represents 50 μm. (E) ESCs [SHEF1] were treated with 2 μM 1M, or 100 ng/ml ActivinA (A) alone or in combination with 1M for 5 days. Expression of the DE marker CXCR4 was alaysed by flow cytometry.\nESCs were cultured on Matrigel®-coated lummox (Greiner Bio One) trays and fixed with 4% paraformaldehyde (PFA) for 20 minutes at room temperature. Cells were permeabilised in PBST (with 0.1% Triton X-100) and blocked in 10% blocking reagent (Roche) before incubating with primary antibodies in 2% blocking reagent overnight at 4° C. After washing in PBS, cells were incubated with FITC-conjugated secondary antibodies (Vector Labs) for 3 hours at room temperature. After further washing, the cells were stained with 4,6-diamidino-2-phenylindole (DAPI) (SIGMA), washed again and mounted in MOWIOL. The following antibodies and dilutions were used: goat-anti-FoxA2 (1:100, R&D. Systems), mouse anti-Sox17 (1:50, R&D Systems), rabbit anti-HNF4α (1:100, Santa Cruz), rabbit anti-AFP (1:100, DAKO), rabbit anti-TTR (1:100, DAKO). Images were captured on a Zeiss 510 Meta confocal microscope using a 40× objective."}, "[1]": {"details": "MEF culture, concentration 0.5, 7 days"}, "[2]": {"details": "MEF culture, concentration 2, 7 days"}, "[3]": {"details": "mTeSR1, concentration 0.5, 7 days"}, "[4]": {"details": "mTeSR1, concentration 2, 7 days"}}, "data": [{"compound": "O=C1NC(=O)C2=C1c1cn(c3ccccc13)CCOCCOCCOCCOCCn1cc2c2ccccc21", "note": "[1M]", "values": [{"measurement": "Expression of pluripotency markers Tra-1-60 and SSEA4 by flow cytometry (in words)", "setting": "Human ESCs [SHEF3]; 7 days treatment", "value": "dramatic decrease in expression"}, {"measurement": "Tra1-60 % pos", "setting": "Human ESCs [SHEF3]; MEF culture, concentration 0.5 (unit not given), 7 days", "value": 82.1, "unit": "%"}, {"measurement": "SSEA4 % pos", "setting": "Human ESCs [SHEF3]; [1]", "value": 90.4, "unit": "%"}, {"measurement": "SSEA4 mean (mean fluorescence intensity)", "setting": "Human ESCs [SHEF3]; [1]", "value": 5805}, {"measurement": "Tra1-60 mean (mean fluorescence intensity)", "setting": "Human ESCs [SHEF3]; [1]", "value": 9403}, {"measurement": "Tra1-60 % pos", "setting": "Human ESCs [SHEF3]; MEF culture, concentration 2 (unit not given), 7 days", "value": 18.9, "unit": "%"}, {"measurement": "SSEA4 % pos", "setting": "Human ESCs [SHEF3]; [2]", "value": 72.9, "unit": "%"}, {"measurement": "SSEA4 mean (mean fluorescence intensity)", "setting": "Human ESCs [SHEF3]; [2]", "value": 1656}, {"measurement": "Tra1-60 mean (mean fluorescence intensity)", "setting": "Human ESCs [SHEF3]; [2]", "value": 1092}, {"measurement": "Tra1-60 % pos", "setting": "Human ESCs [SHEF3]; mTeSR1 (feeder-free, Matrigel), concentration 0.5, 7 days", "value": 85.9, "unit": "%"}, {"measurement": "Tra1-60 % pos", "setting": "Human ESCs [SHEF3]; mTeSR1 (feeder-free, Matrigel), concentration 2, 7 days", "value": 25.6, "unit": "%"}, {"measurement": "SSEA4 % pos", "setting": "Human ESCs [SHEF3]; [3]", "value": 88.6, "unit": "%"}, {"measurement": "SSEA4 mean (mean fluorescence intensity)", "setting": "Human ESCs [SHEF3]; [3]", "value": 7578}, {"measurement": "Tra1-60 mean (mean fluorescence intensity)", "setting": "Human ESCs [SHEF3]; [3]", "value": 11955}, {"measurement": "SSEA4 % pos", "setting": "Human ESCs [SHEF3]; [4]", "value": 52.9, "unit": "%"}, {"measurement": "SSEA4 mean (mean fluorescence intensity)", "setting": "Human ESCs [SHEF3]; [4]", "value": 465}, {"measurement": "Tra1-60 mean (mean fluorescence intensity)", "setting": "Human ESCs [SHEF3]; [4]", "value": 312}, {"measurement": "FOXA2 expressing cells in the entire population", "setting": "ESCs [SHEF1]; 2 μM 1M or 100 ng/ml Activin A", "value": "35-40%"}, {"measurement": "HNF4α-expressing cells", "setting": "ESCs [SHEF1]; 2 μM 1M or 100 ng/ml Activin A", "value": 20, "unit": "%"}, {"measurement": "FoxA2 positive cells in clusters of cells", "setting": "ESCs [SHEF1]; 2 μM, within clusters", "value": 73, "unit": "%"}]}]}
